Assay results published in ChEMBL document CHEMBL1135712, “Structure-activity relationships for pyrido-, imidazo-, pyrazolo-, pyrazino-, and pyrrolophenazinecarboxamides as topoisomerase-targeted anticancer agents” (J Med Chem, 2002).

Tests used:
[1] = Ratio of IC50 in the cell -doxorubicin-resistant Jurkat (JL D) / JL C; type: functional
[2] = Inhibitory concentration to reduce cell number to 50% in a panel of cultured, wild type human Jurkat leukemia (JL C) cells.; type: functional, cell-based
[3] = test system: NCI-H69; assay: Inhibitory activity against drug resistant H69/LX4 line overexpressing P-glycoprotein; type: functional, cell-based; conditions: Homo sapiens
[4] = test system: Lewis lung carcinoma cell line; assay: Inhibitory concentration to reduce cell number to 50% in a panel of cultured, murine Lewis lung carcinoma (LL) cells.; type: functional, cell-based; conditions: Mus musculus
[5] = test system: NCI-H69; assay: Inhibitory activity against parental human small cell lung carcinoma cell line (H69P); type: functional, cell-based
[6] = Ratio of IC50 in the cell -amsacrine-resistant Jurkat (JL A) / JL C; type: functional
[7] = test system: P388; assay: Inhibitory activity against murine P388 leukemia (P388) cells.; type: functional, cell-based; conditions: Mus musculus
[8] = test system: P388 (Mus musculus); assay: Inhibitory concentration to reduce cell number to 50% in a panel of cultured, murine P388 leukemia (P388) cells.

SMILES | Ratio [1] | IC50 [2] [nM] | IC50 ([3]; read-out: IC50) [nM] | IC50 [4] [nM] | IC50 [5] [nM] | Ratio [6] | IC50 [7] [nM] | IC50 [8] [nM] | IC50 [3] [nM]
CN(C)CCNC(=O)c1cccc2nc3ccc4ccccc4c3nc12 | 0.9 | 93 | 1.9 | 23 | 67 | 0.8 | 37 |  | 
COc1cccc2c1ccc1nc3cccc(C(=O)NCCN(C)C)c3nc12 |  |  | 1.4 |  | 35 |  | 9.4 |  | 
CN(C)CCNC(=O)c1cccc2nc3ccc4cnn(C)c4c3nc12 | 1.1 | 44 | 0.92 | 5.9 | 109 | 1 | 8.4 |  | 
COc1cccc2c1ccc1nc3cccc(C(=O)N[C@H](C)CN(C)C)c3nc12 |  |  | 1.2 |  | 23 |  | 10 |  | 
CN(C)CCNC(=O)c1cccc2nc3ccc4cnccc4c3nc12 | 2.8 | 28 | 0.64 | 6.4 | 88 | 3 | 5.6 |  | 
CN(C)CCNC(=O)c1cccc2nc3ccc4c(cnn4C)c3nc12 | 0.8 | 98 | 1.2 | 25 | 130 | 0.8 |  | 59 | 
CN(C)CCNC(=O)c1cccc2nc3ccc4cccnc4c3nc12 | 0.9 | 317 | 2.1 | 89 | 294 | 0.7 |  |  | 
CN(C)CCNC(=O)c1cccc2nc3ccc4c(O)ccnc4c3nc12 |  |  | > 4 |  | 2100 |  | 2700 |  | 
CN(C)CCNC(=O)c1cccc2nc3ccc4ccncc4c3nc12 | 1 | 79 | 1.3 | 11 | 116 | 0.8 | 16 |  | 
CN(C)CCNC(=O)c1cccc2nc3ccc4nccnc4c3nc12 | 0.9 | 165 | 1.5 | 54 | 234 | 1 | 85 |  | 
COc1ccnc2c1ccc1nc3cccc(C(=O)NCCN(C)C)c3nc12 |  |  | 3.2 |  | 123 |  |  |  | 
CN(C)CCNC(=O)c1cccc2nc3ccccc3nc12 | 1 | 2500 |  | 1850 |  | 0.8 | 1100 |  | 
COc1nccc2c1ccc1nc3cccc(C(=O)N[C@H](C)CN(C)C)c3nc12 |  |  | 1.2 |  | 24 |  |  |  | 
COc1nccc2c1ccc1nc3cccc(C(=O)NCCN(C)C)c3nc12 | 0.7 | 17 | 1.2 | 2.4 | 21 | 0.7 | 14 |  | 
CN(C)CCNC(=O)c1cccc2nc3ccc4c(O)nccc4c3nc12 |  |  | 1.05 |  | 133 |  | 31 |  | 
CN(C)CCNC(=O)c1cccc2nc3ccc4c(ccn4C)c3nc12 |  |  | 1.7 |  | 183 |  | 220 |  | 
CN(C)CCNC(=O)c1cccc2nc3ccc4[nH]cnc4c3nc12 | 0.9 | 159 | 5.2 | 41 | 183 | 0.8 | 300 |  | 
COc1nccc2c1ccc1nc3cccc(C(=O)N[C@H](CO)CN(C)C)c3nc12 |  |  | 1.2 |  | 24 |  |  |  | 
CN(C)CCNC(=O)c1cccc2nc3ccc4c[nH]nc4c3nc12 |  | 194 | 0.95 | 66 | 524 | 1.1 | 98 |  | 
CN(C)CCNC(=O)c1cccc2nc3ccc4ncccc4c3nc12 | 0.7 | 74 | 1.2 | 20 | 124 | 0.8 | 42 |  | 
CN(C)CCNC(=O)c1cccc2nc3ccc4[nH]ncc4c3nc12 | 4.7 | 21 | 4.5 | 4.1 | 107 | 4.2 | 6.8 |  | 
COc1cccc2c1C(=O)c1c(O)c3c(c(O)c1C2=O)C[C@@](O)(C(=O)CO)C[C@@H]3O[C@H]1C[C@H](N)[C@H](O)[C@H](C)O1 [DOXORUBICIN] |  | 9.6 |  |  |  |  |  |  | 137
